Experimental data as given in patent publication US12376590B2, “Compositions comprising pyridine carboxylate herbicides and azole carboxylate safeners” (Corteva Agriscience LLC, priority 2018, dated 2025).

What was measured:
Assay in all cases: Greenhouse postemergence herbicidal safening trial, visual injury after 20-22 d
blackgrass (ALOMY) = format: in vivo, Alopecurus myosuroides
From the text: (§1) Greenhouse Trial Methodology—Evaluation of Postemergence Herbicidal Safening in Crops
(§2) Seeds of the desired test plant species were planted in a 90:10% v/v (volume/volume) mixture of PRO-MIX® BX (Premier Tech Horticulture, Quakertown, PA, USA) and PROFILE® GREENS GRADE™ (Profile Products LLC, Buffalo Grove, IL, USA) planting mixture, which typically has a pH of 5.2 to 6.2 and an organic matter content of at least 50 percent, in plastic pots with a surface area of 103.2 square centimeters (cm^2). When required to ensure good germination and healthy plants, a fungicide treatment and/or other chemical or physical treatment was applied. The plants were grown for 7-36 days (d) in a greenhouse with an approximate 14-hour (h) photo-period which was maintained at about 23° C. during the day and 22° C. during the night. Nutrients and water were added on a regular basis and supplemental lighting was provided with overhead metal halide 1000-Watt lamps as necessary. The plants were employed for testing when they reached the second or third true leaf stage.
(§3) Emulsifiable concentrates of each of each pyridine carboxylate herbicide (Compound A or Compound B) were prepared at 100 grams acid equivalent per liter (g ae/L). An aliquot of each emulsifiable concentrate was placed in a 25 mL glass vial and diluted with an aqueous mixture of 1.25% (v/v) ACTIROB® B esterified rapeseed oil (Bayer Crop Science, Research Triangle Park, NC, USA) or MSO® Concentrate with LECI-TECH® methylated soybean oil (Loveland Products, Loveland, CO, USA) to obtain concentrated stock solutions at the highest application rate for each herbicide, based upon a 12 milliliter (mL) application volume at a rate of 187 liters per hectare (L/ha). The concentrated stock solutions were further diluted with an aqueous mixture of 1.25% v/v ACTIROB® B or MSO® Concentrate with LECI-TECH® to obtain stock solutions at reduced application rates for each herbicide. Spray solutions of the herbicide combinations (Compound A or Compound B plus safener) were prepared by adding weighed amounts or aliquots of the azole carboxylate safener to the stock solutions of Compound A or Compound B to form 12-mL spray solutions in two-way combinations.
(§4) The spray solutions were applied to the plant material with an overhead Mandel track sprayer equipped with 8002E nozzles calibrated to deliver 187 L/ha over an application area of 0.503 square meters (m^2) at a spray height of 18 inches (43 centimeters (cm)) above the average plant canopy. Control plants were sprayed in the same manner with the solvent blank. All herbicide (component a) application rates are given as “g ae/ha” and all safener (component b) application rates are given as “g ai/ha.”
(§5) The treated plants and control plants were placed in a greenhouse as described above and watered by sub-irrigation to prevent wash-off of the test compounds. After 20-22 d, the condition of the test plants as compared with that of the control plants was determined visually and scored on a scale of 0 to 100 percent where 0 corresponds to no injury and 100 corresponds to complete kill.

wild chamomile (MATCH) = format: in vivo, Matricaria chamomilla; details: applied alone
From the text: as §1, §2, §3, §4, §5

nutsedge (CYPES) = format: in vivo, Cyperus esculentus
From the text: as §1, §2, §3, §4, §5

wild oat (AVEFA) = format: in vivo, Avena fatua
From the text: as §1, §2, §3, §4, §5

velvetleaf (ABUTH) = format: in vivo, Abutilon theophrasti
From the text: as §1, §2, §3, §4, §5

spring barley (HORVS) = format: in vivo, Hordeum vulgare; details: applied alone
From the text: as §1, §2, §3, §4, §5

common rice (ORYSA) = format: in vivo, Oryza sativa
From the text: as §1, §2, §3, §4, §5

wild pansy (VIOTR) = format: in vivo, Viola tricolor
From the text: as §1, §2, §3, §4, §5

giant foxtail (SETFA) = format: in vivo, Setaria faberi
From the text: as §1, §2, §3, §4, §5

common sunflower (HELAN) = format: in vivo, Helianthus annuus
From the text: as §1, §2, §3, §4, §5

pigweed (AMARE) = format: in vivo, Amaranthus retroflexus
From the text: as §1, §2, §3, §4, §5

large crabgrass (DIGSA) = format: in vivo, Digitaria sanguinalis
From the text: as §1, §2, §3, §4, §5

Russian thistle (SASKR) = format: in vivo, Salsola kali; details: applied alone
From the text: as §1, §2, §3, §4, §5

Measured: % visual injury Ob

CCOC(=O)C1=NN(c2ccc(Cl)cc2Cl)C(C)(C(=O)OCC)C1 (centres unmarked) [Mefenpyr-diethyl, mefenpyr-diethyl]
0%: blackgrass (ALOMY); Mefenpyr-diethyl 20 g/ha | blackgrass (ALOMY); Mefenpyr-diethyl 40 g/ha | blackgrass (ALOMY); Mefenpyr-diethyl 80 g/ha | wild chamomile (MATCH); 10 g/ha | wild chamomile (MATCH); 20 g/ha | wild chamomile (MATCH); 40 g/ha | nutsedge (CYPES); Mefenpyr-diethyl 20 g/ha | nutsedge (CYPES); Mefenpyr-diethyl 40 g/ha | nutsedge (CYPES); Mefenpyr-diethyl 80 g/ha | nutsedge (CYPES); applied alone, 20 g/ha | nutsedge (CYPES); applied alone, 40 g/ha | nutsedge (CYPES); applied alone, 80 g/ha | nutsedge (CYPES); applied alone, 120 g/ha | wild oat (AVEFA); Mefenpyr-diethyl 20 g/ha | wild oat (AVEFA); Mefenpyr-diethyl 40 g/ha | wild oat (AVEFA); Mefenpyr-diethyl 80 g/ha | velvetleaf (ABUTH); Mefenpyr-diethyl 20 g/ha | velvetleaf (ABUTH); Mefenpyr-diethyl 40 g/ha | velvetleaf (ABUTH); Mefenpyr-diethyl 80 g/ha | spring barley (HORVS); 10 g/ha | spring barley (HORVS); 20 g/ha | spring barley (HORVS); 40 g/ha | spring barley (HORVS); 80 g/ha | spring barley (HORVS); 120 g/ha | common rice (ORYSA); Mefenpyr-diethyl 20 g/ha | common rice (ORYSA); Mefenpyr-diethyl 40 g/ha | common rice (ORYSA); Mefenpyr-diethyl 80 g/ha | wild pansy (VIOTR); Mefenpyr-diethyl 20 g/ha | wild pansy (VIOTR); Mefenpyr-diethyl 40 g/ha | wild pansy (VIOTR); Mefenpyr-diethyl 80 g/ha | giant foxtail (SETFA); Mefenpyr-diethyl 20 g/ha | giant foxtail (SETFA); Mefenpyr-diethyl 40 g/ha | giant foxtail (SETFA); Mefenpyr-diethyl 80 g/ha | common sunflower (HELAN); Mefenpyr-diethyl 20 g/ha | common sunflower (HELAN); Mefenpyr-diethyl 40 g/ha | common sunflower (HELAN); Mefenpyr-diethyl 80 g/ha | common sunflower (HELAN); applied alone, 20 g/ha | common sunflower (HELAN); applied alone, 40 g/ha | common sunflower (HELAN); applied alone, 80 g/ha | common sunflower (HELAN); applied alone, 120 g/ha | pigweed (AMARE); Mefenpyr-diethyl 20 g/ha | pigweed (AMARE); Mefenpyr-diethyl 40 g/ha | pigweed (AMARE); Mefenpyr-diethyl 80 g/ha | pigweed (AMARE); applied alone, 20 g/ha | pigweed (AMARE); applied alone, 40 g/ha | pigweed (AMARE); applied alone, 80 g/ha | pigweed (AMARE); applied alone, 120 g/ha | large crabgrass (DIGSA); Mefenpyr-diethyl 20 g/ha | large crabgrass (DIGSA); Mefenpyr-diethyl 40 g/ha | large crabgrass (DIGSA); Mefenpyr-diethyl 80 g/ha | Russian thistle (SASKR); 10 g/ha | Russian thistle (SASKR); 20 g/ha | Russian thistle (SASKR); 40 g/ha
